# According to patent US7122328B2, “Gene involved in mineral deposition and uses thereof” (The Board of Trustees of the Leland Stanford Junior …, priority 2000, dated 2006):
# System: COS cells
# Assay: Intracellular/extracellular pyrophosphate levels in transfected COS cells
# Assay type: cell-based
# Conditions: overexpression in tissue culture cells
# Excerpt: Several protocols have previously been developed for measuring inorganic pyrophosphate in biological samples and any number of these are used in the in vitro assay. Some measure pyrophosphate hydrolysis to orthophosphate by calorimetry (McCarty et al., J. Lab. Clin. Med., 78:216–29 (1971)), while others use labeled substrates that couple with pyrophosphate in enzymatic reactions to determine pyrophosphate levels radiometrically (Cheung and Suhadolnik, Anal. Biochem., 83:61–3 (1977); Caswell and Russell, Biochim. Biophys. Acta, 847:40–7 (1985)). In another type of protocols, inorganic pyrophosphate is subjected to a series of coupled enzymatic phosphorylation and reduction to yield NADPH which can be quantified flourimetrically (Lust and Seegmiller, Clin. Chim. Acta, 66:241–9 (1976)). Although each of these can be used in the assay, the latter protocol is used with described modifications as follows.
# COS cells grown in DMEM supplemented with 10% fetal bovine serum, 2 mM GlutaMax (Gibco), 0.1 mM non-essential amino acids, 100 units/ml Penicillin G, and 100 μg/ml Streptomycin are harvested and ˜1–2×10^6 cells are plated on a 100 mm tissue culture dish and incubated overnight at 37° C., 5% CO2. […]
substance,measurement,value
wild type ANK gene product: wild type ANK protein overexpressed in tissue culture cells; multiple-pass integral membrane protein of 492 amino acids,extracellular pyrophosphate levels,increase
same,intracellular pyrophosphate levels,dramatic reduction
